TGI and GI50 data for 24 compounds are collected here from PubChem BioAssay (NCI).

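Test compounds were applied to cells in 96-well plates for 48 hours at 5 doses. The concentration for 50% growth inhibition is given as GI50. Definition used: TGI = concentration required for complete inhibition of growth.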

Some test systems named below: K-562 leukemia; U251 CNS; HCT-116 colon; SNB-19 CNS; CCRF-CEM leukemia; UO-31 renal; NCI-H226 lung; ACHN renal; HL-60(TB) leukemia.
Assay in all cases: NCI-60 cell line screen, 48 h

For `COc1ccc2nc3cc(Cl)ccc3c(Sc3ccc(N)cc3)c2c1`, the TGI came out at 13.8 µM in the assay on K-562 leukemia; 22.6 µM with U251 CNS; 17.3 µM with HCT-116 colon; 33.4 µM with SNB-19 CNS; 18.7 µM with CCRF-CEM leukemia; 22.7 µM with UO-31 renal. In addition, the figures for the TGI in the assay on NCI-H226 lung and in the assay with ACHN renal were 34.3 µM and 21.9 µM, respectively.
Turning to `COc1ccc(C2=C(OC(C)=O)c3cccn3-c3ccc(Cl)cc3S2)cc1`, the TGI in the assay on K-562 leukemia was 5.69 µM; with CCRF-CEM leukemia, greater than 10 µM; in the assay with HL-60(TB) leukemia, 3.02 µM.
Regarding `Cn1c(=O)nc2n(-c3ccc(Br)cc3)c3ccccc3nc-2c1=O`, the TGI with K-562 leukemia was 24 µM; in the assay with U251 CNS, 19.9 µM; in the assay with HCT-116 colon it was 16.3 µM; in the assay with SNB-19 CNS, 9.3 µM; in the assay on CCRF-CEM leukemia, 19.9 µM; in the assay with UO-31 renal, 37.9 µM. Besides, the TGI in the assay on NCI-H226 lung was 28.5 µM; with ACHN renal it was 13.2 µM.
Take `C=CCCC(O)c1cc(C)c(O)c(C)c1` (stereo unspecified): the TGI in the assay with K-562 leukemia, in the assay on U251 CNS, in the assay on SNB-19 CNS, in the assay with CCRF-CEM leukemia, in the assay on UO-31 renal and in the assay with HL-60(TB) leukemia was greater than 100 µM throughout. Also, the TGI in the assay with NCI-H226 lung and with ACHN renal was greater than 100 µM throughout.
Consider `CCCCC[C@@H]1CCCC2NC(CCCCCO[Si](c3ccccc3)(c3ccccc3)C(C)(C)C)CCC21` (stereo partly specified), for which the TGI in the assay on K-562 leukemia was 20.9 µM; with U251 CNS, 27.8 µM; with HCT-116 colon, 23.7 µM; in the assay on SNB-19 CNS, 32.7 µM; in the assay with CCRF-CEM leukemia it was 26.7 µM; with UO-31 renal, 26.6 µM. Also, the TGI with HL-60(TB) leukemia came to 23 µM; with NCI-H226 lung, 36.6 µM; with ACHN renal, 26.5 µM.
On to `COC1CCCc2c(OC(C)=O)ccc(OC(C)=O)c21` (stereo unspecified), for which the TGI with K-562 leukemia, in the assay on U251 CNS, with HCT-116 colon, in the assay on SNB-19 CNS, in the assay with UO-31 renal and with HL-60(TB) leukemia was greater than 100 µM in each case. Further, the TGI in the assay with NCI-H226 lung and with ACHN renal was greater than 100 µM throughout.
As for `COc1ccc2c(=O)c(-c3cc(OC)c(OC)cc3OC)coc2c1`, the TGI in the assay with K-562 leukemia is greater than 100 µM; with U251 CNS it was greater than 38.6 µM; in the assay on HCT-116 colon, greater than 100 µM; with SNB-19 CNS, greater than 100 µM; with CCRF-CEM leukemia, greater than 100 µM; in the assay on UO-31 renal it was greater than 100 µM. The TGI is 2.92 µM in the assay with HL-60(TB) leukemia, greater than 100 µM in the assay with NCI-H226 lung and greater than 100 µM in the assay on ACHN renal.
`O=c1[nH]c2nc3ccccc3c(=O)n2nc1Cc1ccccc1`: the TGI with K-562 leukemia, in the assay on U251 CNS, in the assay with HCT-116 colon, with SNB-19 CNS, with CCRF-CEM leukemia and in the assay on UO-31 renal was greater than 100 µM in each case. In addition, the TGI in the assay on NCI-H226 lung and in the assay with ACHN renal was greater than 100 µM each time.
As to `N#CN1CC[C@@H]2CC3(CCC2C1)OCCO3` (stereo partly specified), the TGI in the assay on K-562 leukemia, in the assay on U251 CNS, in the assay on HCT-116 colon, with SNB-19 CNS, in the assay with CCRF-CEM leukemia and in the assay on UO-31 renal was greater than 100 µM throughout. In addition, the TGI in the assay on HL-60(TB) leukemia, with NCI-H226 lung and with ACHN renal was greater than 100 µM throughout.
Regarding `O=C(c1ccccc1)c1nc2c(Cl)ccc(Cl)c2cc1C(Br)Br`, the TGI was 1.77 µM in the assay on K-562 leukemia; 2.38 µM with U251 CNS; 1.56 µM in the assay with HCT-116 colon; 3.11 µM in the assay on SNB-19 CNS; 1.33 µM with CCRF-CEM leukemia; 2.56 µM in the assay on UO-31 renal. The values for the TGI in the assay with NCI-H226 lung and in the assay on ACHN renal were 3.61 µM and 1.52 µM, respectively.
Consider `C=CC[P@]1(=O)O[C@H](c2ccccc2)C(C)N1C(C)C` (stereo partly specified), for which the TGI in the assay with K-562 leukemia, in the assay with U251 CNS, in the assay with HCT-116 colon, with SNB-19 CNS, in the assay on CCRF-CEM leukemia and in the assay on UO-31 renal was greater than 100 µM each time. For the same compound, the TGI in the assay with HL-60(TB) leukemia, in the assay on NCI-H226 lung and in the assay on ACHN renal was greater than 100 µM throughout.
With `CCOC(=O)c1ccc(N=Cc2ccc(N(CCC#N)S(=O)(=O)c3ccccc3)cc2C)cc1`, the TGI with K-562 leukemia, in the assay on U251 CNS, in the assay with HCT-116 colon, in the assay with SNB-19 CNS, in the assay with CCRF-CEM leukemia and with UO-31 renal was greater than 100 µM each time. The TGI with HL-60(TB) leukemia is greater than 100 µM.
Regarding `N.N.N.N.N#N.N#N.[Cl-].[Os+6]`, the GI50 with U251 CNS, with HCT-116 colon, in the assay with SNB-19 CNS, with UO-31 renal and with NCI-H226 lung was greater than 100 µM each time. The TGI in the assay on U251 CNS, in the assay on HCT-116 colon, with SNB-19 CNS, in the assay on UO-31 renal and in the assay on NCI-H226 lung was greater than 100 µM throughout.
Take `Cc1c(C)c2cc3c(=O)c(CCl)coc3c(C)c2oc1=O`: the TGI in the assay on K-562 leukemia, with U251 CNS, in the assay on HCT-116 colon, with SNB-19 CNS, in the assay with CCRF-CEM leukemia and in the assay with UO-31 renal was greater than 100 µM each time. For the same compound, the TGI in the assay on HL-60(TB) leukemia, in the assay on NCI-H226 lung and in the assay on ACHN renal was greater than 100 µM each time.
For `COCN1COCN(C)C1=O`, the TGI with K-562 leukemia, in the assay with U251 CNS, with HCT-116 colon, in the assay with SNB-19 CNS, in the assay on CCRF-CEM leukemia and with UO-31 renal was greater than 100 µM each time. Further, the TGI in the assay on NCI-H226 lung and in the assay with ACHN renal was greater than 100 µM throughout.
`COc1ccc2c(c1OC)C(=O)C2`: the TGI in the assay on U251 CNS, with HCT-116 colon, with SNB-19 CNS, in the assay with CCRF-CEM leukemia, in the assay with UO-31 renal and in the assay on HL-60(TB) leukemia was greater than 100 µM in each case. Also, the TGI with NCI-H226 lung and in the assay with ACHN renal was greater than 100 µM each time.
On to `O=C(NCCCN1CCN(CCCNC(=O)c2cccc3ccccc23)CC1)c1cccc2ccccc12`, for which the TGI in the assay with K-562 leukemia, in the assay with U251 CNS, with HCT-116 colon, in the assay with SNB-19 CNS, with CCRF-CEM leukemia and in the assay on UO-31 renal was greater than 100 µM in each case. For the same compound, the TGI in the assay on HL-60(TB) leukemia, with NCI-H226 lung and in the assay with ACHN renal was greater than 100 µM in each case.
For the compound `O=C(CC1(O)C(=O)Nc2ccccc21)c1ccc(Cl)c(Cl)c1` (stereo unspecified), the TGI in the assay on K-562 leukemia, with U251 CNS, in the assay on HCT-116 colon, with SNB-19 CNS, with CCRF-CEM leukemia and with UO-31 renal was greater than 100 µM each time. Also, the TGI in the assay with HL-60(TB) leukemia, in the assay with NCI-H226 lung and in the assay on ACHN renal was greater than 100 µM throughout.
Take `O=C1OC(c2ccc([N+](=O)[O-])cc2)=N/C1=C\c1ccc(Cl)cc1`: the TGI in the assay with K-562 leukemia, with U251 CNS, in the assay on HCT-116 colon, in the assay with SNB-19 CNS, in the assay with CCRF-CEM leukemia and in the assay with HL-60(TB) leukemia was greater than 100 µM in each case. Also, the TGI in the assay on NCI-H226 lung and in the assay on ACHN renal was greater than 100 µM in each case.
For `S=C1SCC2CCCN12` (stereo unspecified), the TGI with K-562 leukemia, in the assay on U251 CNS, in the assay on HCT-116 colon, in the assay on SNB-19 CNS, in the assay on CCRF-CEM leukemia and in the assay with UO-31 renal was greater than 100 µM in each case. Besides, the TGI in the assay on HL-60(TB) leukemia and in the assay with ACHN renal was greater than 100 µM each time.
`CC(=O)OC1(Sc2ccccc2)CC2[C@H]3COC(C)(C)O[C@H]3CC[C@@]2(C)CC1=O` (stereo partly specified): the TGI with K-562 leukemia, in the assay with HCT-116 colon, with SNB-19 CNS, with UO-31 renal, in the assay on NCI-H226 lung and with ACHN renal was greater than 100 µM each time.
Take `Cc1nc2ccccc2c(=O)n1/N=C(\N=Nc1ccc(Cl)cc1)c1cccc(-c2ccco2)c1`: the TGI in the assay on K-562 leukemia was greater than 100 µM; in the assay with U251 CNS, greater than 100 µM; in the assay on HCT-116 colon, 95.5 µM; in the assay with CCRF-CEM leukemia, 88.2 µM; in the assay on UO-31 renal it was 43.1 µM; with HL-60(TB) leukemia, 69.4 µM. This compound also had a TGI in the assay with ACHN renal greater than 100 µM.
As to `CC(C)(C)c1cc(C2c3cc4c(cc3OC(O)(CO)C2C(=O)O)OCO4)cc(C(C)(C)C)c1O` (stereo unspecified) (tested in a mixture with another compound), the TGI in the assay on K-562 leukemia was determined as 29.6 µM; in the assay with U251 CNS it was 29.1 µM; with HCT-116 colon, 21.2 µM; in the assay on SNB-19 CNS it was 25.7 µM; in the assay with CCRF-CEM leukemia it was 21.9 µM; with UO-31 renal, 26.6 µM. Also, the TGI with HL-60(TB) leukemia turned out to be 38.2 µM; with ACHN renal, 28.2 µM.
Take `O=C(n1c2ccccc2c2n[nH]c(=S)nc21)C(F)(F)F`: the TGI with K-562 leukemia, with U251 CNS, with HCT-116 colon, with SNB-19 CNS, with CCRF-CEM leukemia and with UO-31 renal was greater than 100 µM in each case. The compound further had a TGI with NCI-H226 lung greater than 100 µM.
